A short description of data set [1]: Octanol/water partition coefficient. It is filed as physicochemical. Particulars: Table 1.
A further data set concerns the target PSMA (Homo sapiens (Human), UniProt Q04609). The experiment in a line: PSMA binding affinity.
Another data set deals with PSMA(+) PC3 PIP cells. The experiment in a line: Cell uptake, cell surface binding and internalization in PSMA(+) PC3 PIP cells. It is filed as cell-based, human.

Broadly, the pIC50 is −log10 of the IC50, conventionally taken in molar units. Lower therefore signals a high IC50. Broadly, the pKi is the Ki on a negative log10 scale, so that one unit is a factor of ten. A higher pKi goes with a small Ki.

pIC50, pKi: −log10 of the molar value.

Chain of PSMA (Q04609 whole entry): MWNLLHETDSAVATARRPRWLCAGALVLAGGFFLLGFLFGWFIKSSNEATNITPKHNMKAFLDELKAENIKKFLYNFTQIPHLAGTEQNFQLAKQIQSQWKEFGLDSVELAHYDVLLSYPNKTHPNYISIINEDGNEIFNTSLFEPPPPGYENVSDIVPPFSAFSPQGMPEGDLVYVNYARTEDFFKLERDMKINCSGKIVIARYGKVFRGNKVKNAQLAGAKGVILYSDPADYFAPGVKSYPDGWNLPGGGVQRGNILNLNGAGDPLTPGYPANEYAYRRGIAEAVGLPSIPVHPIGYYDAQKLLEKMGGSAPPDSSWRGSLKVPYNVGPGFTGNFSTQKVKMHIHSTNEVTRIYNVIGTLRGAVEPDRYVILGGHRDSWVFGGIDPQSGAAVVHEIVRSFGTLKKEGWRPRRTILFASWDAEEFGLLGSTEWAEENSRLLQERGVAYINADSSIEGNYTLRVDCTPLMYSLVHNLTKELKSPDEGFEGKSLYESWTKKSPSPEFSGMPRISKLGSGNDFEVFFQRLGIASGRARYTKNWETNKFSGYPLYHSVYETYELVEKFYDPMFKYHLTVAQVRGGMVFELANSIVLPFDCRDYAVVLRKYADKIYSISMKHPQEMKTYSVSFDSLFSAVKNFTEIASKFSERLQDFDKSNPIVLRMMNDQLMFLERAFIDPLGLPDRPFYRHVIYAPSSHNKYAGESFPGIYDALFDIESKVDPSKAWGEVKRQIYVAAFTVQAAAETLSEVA

`O=C(O)CC[C@H](NC(=O)N[C@@H](CCCCN(Cc1ccc(Br)cc1)C(=O)CCCCNC(=S)Nc1ccc(CC2CN(CC(=O)O)CCN(CC(=O)O)CCN(CC(=O)O)CCN2CC(=O)O)cc1)C(=O)O)C(=O)O` (stereo partly drawn) [Ligand 1, (13S,17S)-8-(4-bromobenzyl)-7,15-dioxo-1-((4-((1,4,7,10-tetrakis(carboxymethyl)-1,4,7,10-tetraazacyclododecan-2-yl)methyl)phenyl)amino)-1-thioxo-2,8,14,16-tetraazanonadecane-13,17,19-tricarboxylic acid] returned a LogPoct/water in data set [1] of −3.0. On PSMA (Table 1), `O=C(O)CC[C@H](NC(=O)N[C@@H](CCCCN(Cc1ccc(Br)cc1)C(=O)CCCCNC(=O)CN1CCN(CC(=O)O)CCN(CC(=O)O)CCN(CC(=O)O)CC1)C(=O)O)C(=O)O` [Ligand 2, (14S,18S)-9-(4-Bromobenzyl)-2,8,16-trioxo-1-(4,7,10-tris(carboxymethyl)-1,4,7,10-tetraazacyclododecan-1-yl)-3,9,15,17-tetraazaicosane-14,18,20-tricarboxylic acid] had a pIC50 of 9.19 and a pKi of 8.89. In addition, the LogPoct/water in data set [1] is on record as −3.53. Taken in the same sequence, the figures for `O=C(O)CC[C@H](NC(=O)N[C@@H](CCCCNC(=O)CCCCNC(=S)Nc1ccc(CC2CN(CC(=O)O)CCN(CC(=O)O)CCN(CC(=O)O)CCN2CC(=O)O)cc1)C(=O)O)C(=O)O` (stereo partly drawn) [Ligand 3, (13S,17S)-7,15-dioxo-1-((4-((1,4,7,10-tetrakis(carboxymethyl)-1,4,7,10-tetraazacyclododecan-2-yl)methyl)phenyl)amino)-1-thioxo-2,8,14,16-tetraazanonadecane-13,17,19-tricarboxylic acid] were 8.67, 9.37 and −3.2. Regarding `O=C(O)CC[C@H](NC(=O)N[C@@H](CCCCN(Cc1ccc(I)cc1)C(=O)CCCCNC(=O)CN1CCN(CC(=O)O)CCN(CC(=O)O)CCN(CC(=O)O)CC1)C(=O)O)C(=O)O` [Ligand L2, (14S,18S)-9-(4-iodobenzyl)-2,8,16-trioxo-1-(4,7,10-tris(carboxymethyl)-1,4,7,10-tetraazacyclododecan-1-yl)-3,9,15,17-tetraazaicosane-14,18,20-tricarboxylic acid], the pKi on PSMA (Table 6, given as range) is 9.48 to 9.70. For the same compound, in the data set on PSMA(+) PC3 PIP cells, the “Specific Cell Surface Binding” value is on record as 29.23 ± 0.80 % IA/10^6 cells and the specific internalization is recorded as 24.96 ± 0.90 % IA/10^6 cells. Taken in the same sequence, the figures for `O=C(O)CC[C@H](NC(=O)N[C@@H](CCCCN(Cc1ccc(Br)cc1)C(=O)CCCCCNC(=O)c1ccc(CNC(=O)CN2CCN(CC(=O)O)CCN(CC(=O)O)CCN(CC(=O)O)CC2)cc1)C(=O)O)C(=O)O` [Ligand L3, (14S,18S)-9-(4-Bromobenzyl)-1,8,16-trioxo-1-(4-((2-(4,7,10-tris(carboxymethyl)-1,4,7,10-tetraazacyclododecan-1-yl)acetamido)methyl)phenyl)-2,9,15,17-tetraazaicosane-14,18,20-tricarboxylic acid] were 7.47 to 10.05, 36.65 ± 0.50 % IA/10^6 cells and 22.03 ± 0.60 % IA/10^6 cells. Consider `O=C(O)CC[C@H](NC(=O)N[C@@H](CCCCN(Cc1ccc(I)cc1)C(=O)CCCCCNC(=O)c1ccc(CNC(=O)CN2CCN(CC(=O)O)CCN(CC(=O)O)CCN(CC(=O)O)CC2)cc1)C(=O)O)C(=O)O` [Ligand L4, (14S,18S)-9-(4-Iodobenzyl)-1,8,16-trioxo-1-(4-((2-(4,7,10-tris(carboxymethyl)-1,4,7,10-tetraazacyclododecan-1-yl)acetamido)methyl)phenyl)-2,9,15,17-tetraazaicosane-14,18,20-tricarboxylic acid], for which the pKi at PSMA (Table 6, given as range) was 9.41 to 9.85. As for `O=C(O)CC[C@H](NC(=O)N[C@@H](CCCCN(Cc1ccc(Br)cc1)C(=O)CCCCCCC(=O)NCCCCNC(=O)c1ccc(CNC(=O)CN2CCN(CC(=O)O)CCN(CC(=O)O)CCN(CC(=O)O)CC2)cc1)C(=O)O)C(=O)O` [Ligand L5, (21S,25S)-16-(4-Bromobenzyl)-1,8,15,23-tetraoxo-1-(4-((2-(4,7,10-tris(carboxymethyl)-1,4,7,10-tetraazacyclododecan-1-yl)acetamido)methyl)phenyl)-2,7,16,22,24-pentaazaheptacosane-21,25,27-tricarboxylic acid], the pKi at PSMA (Table 6, given as range) is 9.20 to 9.34. In the data set with PSMA(+) PC3 PIP cells, the “Specific Cell Surface Binding” value is 36.65 ± 0.50 % IA/10^6 cells and the specific internalization turned out to be 22.03 ± 0.60 % IA/10^6 cells.

In the case of `O=C(O)CC[C@H](NC(=O)N[C@@H](CCCCN(Cc1ccc(I)cc1)C(=O)CCCCCCC(=O)NCCCCNC(=O)c1ccc(CNC(=O)CN2CCN(CC(=O)O)CCN(CC(=O)O)CCN(CC(=O)O)CC2)cc1)C(=O)O)C(=O)O` [Ligand L6, (21S,25S)-16-(4-Iodobenzyl)-1,8,15,23-tetraoxo-1-(4-((2-(4,7,10-tris(carboxymethyl)-1,4,7,10-tetraazacyclododecan-1-yl)acetamido)methyl)phenyl)-2,7,16,22,24-pentaazaheptacosane-21,25,27-tricarboxylic acid], the pKi at PSMA (Table 6, given as range) was 9.03 to 9.46.

Consider `O=C(O)CC[C@H](NC(=O)N[C@@H](CCCCNC(=O)CCCCNC(=S)Nc1ccc(CC2CN(CC(=O)O)CCN(CC(=O)O)CCN(CC(=O)O)CCN2CC(=O)O)cc1)C(=O)O)C(=O)O` (stereo partly drawn) [Ligand L7, (13S,17S)-7,15-dioxo-1-((4-((1,4,7,10-tetrakis(carboxymethyl)-1,4,7,10-tetraazacyclododecan-2-yl)methyl)phenyl)amino)-1-thioxo-2,8,14,16-tetraazanonadecane-13,17,19-tricarboxylic acid], for which, at PSMA (Table 6, given as range), the pKi was 9.09 to 9.54. With `O=C(O)CC[C@H](NC(=O)N[C@@H](CCCCN(Cc1ccc(Br)cc1)C(=O)CCCCNC(=S)Nc1ccc(CC2CN(CC(=O)O)CCN(CC(=O)O)CCN(CC(=O)O)CCN2CC(=O)O)cc1)C(=O)O)C(=O)O` (stereo partly drawn) [Ligand L8, (13S,17S)-8-(4-bromobenzyl)-7,15-dioxo-1-((4-((1,4,7,10-tetrakis(carboxymethyl)-1,4,7,10-tetraazacyclododecan-2-yl)methyl)phenyl)amino)-1-thioxo-2,8,14,16-tetraazanonadecane-13,17,19-tricarboxylic acid], at PSMA (Table 6, given as range), the pKi was 9.80 to 10.10. Besides, the specific internalization in the data set on PSMA(+) PC3 PIP cells came to 20.06 % IA/10^6 cells. In turn, `O=C(O)CC[C@H](NC(=O)N[C@@H](CCCCN(Cc1ccc(Br)cc1)C(=O)CCCCNC(=O)CCC(C(=O)O)N1CCN(CC(=O)O)CCN(CC(=O)O)CCN(CC(=O)O)CC1)C(=O)O)C(=O)O` (stereo partly drawn) [Ligand L9, (3S,7S)-12-(4-Bromobenzyl)-5,13,19-trioxo-22-(4,7,10-tris(carboxymethyl)-1,4,7,10-tetraazacyclododecan-1-yl)-4,6,12,18-tetraazadocosane-1,3,7,22-tetracarboxylic acid] showed a pKi at PSMA (Table 6, given as range) of 10.30 to 10.70. In addition, in the data set with PSMA(+) PC3 PIP cells, the specific internalization was 7.80 % IA/10^6 cells. For `O=C(O)CC[C@H](NC(=O)N[C@@H](CCCCN(Cc1ccc(Br)cc1)C(=O)c1ccc(CNC(=O)CN2CCN(CC(=O)O)CCN(CC(=O)O)CCN(CC(=O)O)CC2)cc1)C(=O)O)C(=O)O` [Ligand L12, (((S)-5-(N-(4-Bromobenzyl)-4-((2-(4,7,10-tris(carboxymethyl)-1,4,7,10-tetraazacyclododecan-1-yl)acetamido)methyl)benzamido)-1-carboxypentyl)carbamoyl)-L-glutamic acid], the pKi on PSMA (Table 6, given as range) was 8.39 to 9.66. `O=C(O)CC[C@H](NC(=O)N[C@@H](CCCCN(Cc1ccc(Br)nc1)C(=O)CCCCNC(=O)CN1CCN(CC(=O)O)CCN(CC(=O)O)CCN(CC(=O)O)CC1)C(=O)O)C(=O)O` [Ligand L13, (14S,18S)-9-((6-Bromopyridin-3-yl)methyl)-2,8,16-trioxo-1-(4,7,10-tris(carboxymethyl)-1,4,7,10-tetraazacyclododecan-1-yl)-3,9,15,17-tetraazaicosane-14,18,20-tricarboxylic acid] showed a pKi on PSMA (Table 6, given as range) of 8.09 to 9.64. `O=C([O-])CN1CCN(CC(=O)[O-])CCN(CC(=O)NCCCCC(=O)N(CCCC[C@H](NC(=O)N[C@@H](CCC(=O)O)C(=O)O)C(=O)O)Cc2ccc(Br)cc2)CCN(CC(=O)[O-])CC1.[Lu+3]` [Lu-L1]: the “fold improvement in binding affinity over L1” value on PSMA came to 3 fold.

The values above are taken from patent US11478558B2, “Prostate-specific membrane antigen targeted high-affinity agents for endoradiotherapy of prostate cancer” (The Johns Hopkins University, priority 2017, dated 2022).
